#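 Where inhibition never reached the appropriate level, the endpoint shown equals the highest concentration tested. Otherwise, values were interpolated linearly from a five-concentration, 48-hour dose response in 96-well plates. TGI: total growth inhibition.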
# Legend:
# Experiment in all cases: DTP human tumour cell line panel, 48 h
# SK-OV-3 ovarian = system: SK-OV-3 ovarian
# MDA-MB-231 breast = system: MDA-MB-231 breast
# EKVX NSCLC = system: EKVX NSCLC
# BT-549 breast = system: BT-549 breast
# HL-60(TB) leukemia = system: HL-60(TB) leukemia
# TK-10 renal = system: TK-10 renal
# NCI-H226 lung = system: NCI-H226 lung
# SK-MEL-2 melanoma = system: SK-MEL-2 melanoma
# HOP-92 NSCLC = system: HOP-92 NSCLC
# M14 melanoma = system: M14 melanoma
# MOLT-4 leukemia = system: MOLT-4 leukemia
# SK-MEL-5 melanoma = system: SK-MEL-5 melanoma
# CAKI-1 renal = system: CAKI-1 renal
# SK-MEL-28 melanoma = system: SK-MEL-28 melanoma
# UO-31 renal = system: UO-31 renal
# HOP-62 NSCLC = system: HOP-62 NSCLC
# UACC-62 melanoma = system: UACC-62 melanoma
# SR leukemia = system: SR leukemia
# UACC-257 melanoma = system: UACC-257 melanoma
# DU-145 prostate = system: DU-145 prostate
# MALME-3M melanoma = system: MALME-3M melanoma
# A549 NSCLC = system: A549 NSCLC
# A498 renal = system: A498 renal
# CCRF-CEM leukemia = system: CCRF-CEM leukemia
# OVCAR-4 ovarian = system: OVCAR-4 ovarian
# MDA-N = system: MDA-N
# HT29 colon = system: HT29 colon
# NCI/ADR-RES ovarian = system: NCI/ADR-RES ovarian
# T-47D breast = system: T-47D breast
# 786-0 renal = system: 786-0 renal
# NCI-H23 lung = system: NCI-H23 lung
# HCT-15 colon = system: HCT-15 colon
# SNB-75 CNS = system: SNB-75 CNS
# NCI-H460 lung = system: NCI-H460 lung
# HCC-2998 colon = system: HCC-2998 colon
# OVCAR-8 ovarian = system: OVCAR-8 ovarian
# MCF7 breast = system: MCF7 breast
# K-562 leukemia = system: K-562 leukemia
# HCT-116 colon = system: HCT-116 colon
# PC-3 prostate = system: PC-3 prostate
# HS 578T breast = system: HS 578T breast
# MDA-MB-435 = system: MDA-MB-435
# SNB-19 CNS = system: SNB-19 CNS
# COLO 205 colon = system: COLO 205 colon
# OVCAR-5 ovarian = system: OVCAR-5 ovarian
# SF-295 CNS = system: SF-295 CNS
# KM12 colon = system: KM12 colon
# NCI-H522 lung = system: NCI-H522 lung
# RPMI-8226 leukemia = system: RPMI-8226 leukemia
# SF-268 CNS = system: SF-268 CNS
# U251 CNS = system: U251 CNS
# LOX IMVI melanoma = system: LOX IMVI melanoma
# SW-620 colon = system: SW-620 colon
# RXF 393 renal = system: RXF 393 renal
# ACHN renal = system: ACHN renal
# SN12C renal = system: SN12C renal
# IGROV1 ovarian = system: IGROV1 ovarian
# OVCAR-3 ovarian = system: OVCAR-3 ovarian
smiles,measurement,setting,value
Cc1nc2c(nc1C)-c1c(c3c(n1Cc1ccccc1)C(=O)CCC3)C(=O)C2=O,TGI,SK-OV-3 ovarian,> 100 µM
same,TGI,MDA-MB-231 breast,> 100 µM
same,TGI,EKVX NSCLC,> 100 µM
same,TGI,BT-549 breast,5.84 µM
same,TGI,HL-60(TB) leukemia,97.7 µM
same,TGI,TK-10 renal,38.1 µM
same,TGI,NCI-H226 lung,48.4 µM
same,TGI,SK-MEL-2 melanoma,31.7 µM
same,TGI,HOP-92 NSCLC,90.3 µM
same,TGI,M14 melanoma,91.1 µM
same,TGI,MOLT-4 leukemia,> 100 µM
same,TGI,SK-MEL-5 melanoma,24.6 µM
same,TGI,CAKI-1 renal,5.32 µM
same,TGI,SK-MEL-28 melanoma,4.18 µM
same,TGI,UO-31 renal,4.07 µM
same,TGI,HOP-62 NSCLC,> 100 µM
same,TGI,UACC-62 melanoma,50.9 µM
same,TGI,SR leukemia,6.36 µM
same,TGI,UACC-257 melanoma,48.3 µM
same,TGI,DU-145 prostate,88.8 µM
same,TGI,MALME-3M melanoma,14.2 µM
same,TGI,A549 NSCLC,> 100 µM
same,TGI,A498 renal,38 µM
same,TGI,CCRF-CEM leukemia,> 100 µM
same,TGI,OVCAR-4 ovarian,3.59 µM
same,TGI,MDA-N,4.82 µM
same,TGI,HT29 colon,23.9 µM
same,TGI,NCI/ADR-RES ovarian,> 100 µM
same,TGI,T-47D breast,> 100 µM
same,TGI,786-0 renal,> 100 µM
same,TGI,NCI-H23 lung,> 100 µM
same,TGI,HCT-15 colon,> 100 µM
same,TGI,SNB-75 CNS,6.56 µM
same,TGI,NCI-H460 lung,> 100 µM
same,TGI,HCC-2998 colon,5.49 µM
same,TGI,OVCAR-8 ovarian,> 100 µM
same,TGI,MCF7 breast,5.39 µM
same,TGI,K-562 leukemia,> 100 µM
same,TGI,HCT-116 colon,> 100 µM
same,TGI,PC-3 prostate,29.4 µM
same,TGI,HS 578T breast,7.99 µM
same,TGI,MDA-MB-435,5.98 µM
same,TGI,SNB-19 CNS,28.8 µM
same,TGI,COLO 205 colon,> 100 µM
same,TGI,OVCAR-5 ovarian,> 100 µM
same,TGI,SF-295 CNS,71.1 µM
same,TGI,KM12 colon,4.64 µM
same,TGI,NCI-H522 lung,7.28 µM
COC(=O)C1OC(O[C@H]2CC[C@]3(C)[C@H]4CC=C5[C@@H]6CC(C)(C)CC[C@]6(C(=O)OC)[C@H](O)C[C@@]5(C)[C@]4(C)CC[C@H]3C2(C)C)C(O)C(O)C1O (stereo not given in full),TGI,SK-OV-3 ovarian,28.2 µM
same,TGI,MDA-MB-231 breast,21.8 µM
same,TGI,EKVX NSCLC,21.4 µM
same,TGI,BT-549 breast,30.4 µM
same,TGI,HL-60(TB) leukemia,13.7 µM
same,TGI,RPMI-8226 leukemia,27.4 µM
same,TGI,SF-268 CNS,29.5 µM
same,TGI,NCI-H226 lung,31.7 µM
same,TGI,SK-MEL-2 melanoma,28.7 µM
same,TGI,U251 CNS,23.9 µM
same,TGI,HOP-92 NSCLC,30.5 µM
same,TGI,M14 melanoma,18.3 µM
same,TGI,MOLT-4 leukemia,25.2 µM
same,TGI,SK-MEL-5 melanoma,26.2 µM
same,TGI,CAKI-1 renal,27.2 µM
same,TGI,LOX IMVI melanoma,17.1 µM
same,TGI,SK-MEL-28 melanoma,23.8 µM
same,TGI,UO-31 renal,26.9 µM
same,TGI,HOP-62 NSCLC,31.1 µM
same,TGI,UACC-62 melanoma,25.1 µM
same,TGI,SW-620 colon,24.9 µM
same,TGI,RXF 393 renal,18.1 µM
same,TGI,SR leukemia,15.9 µM
same,TGI,UACC-257 melanoma,29.1 µM
same,TGI,ACHN renal,23.8 µM
same,TGI,SN12C renal,25.9 µM
same,TGI,DU-145 prostate,21.6 µM
same,TGI,MALME-3M melanoma,25.4 µM
same,TGI,A549 NSCLC,17.4 µM
same,TGI,A498 renal,26.1 µM
same,TGI,CCRF-CEM leukemia,21.4 µM
same,TGI,IGROV1 ovarian,24.8 µM
same,TGI,OVCAR-4 ovarian,19.7 µM
same,TGI,MDA-N,24.9 µM
same,TGI,HT29 colon,13.5 µM
same,TGI,NCI/ADR-RES ovarian,26.3 µM
same,TGI,T-47D breast,28.6 µM
same,TGI,786-0 renal,20.9 µM
same,TGI,NCI-H23 lung,18.9 µM
same,TGI,HCT-15 colon,22.2 µM
same,TGI,SNB-75 CNS,28.1 µM
same,TGI,NCI-H460 lung,22.7 µM
same,TGI,HCC-2998 colon,8.64 µM
same,TGI,OVCAR-3 ovarian,22.1 µM
same,TGI,OVCAR-8 ovarian,27.3 µM
same,TGI,MCF7 breast,23.5 µM
same,TGI,K-562 leukemia,15 µM
same,TGI,HCT-116 colon,17 µM
same,TGI,PC-3 prostate,19.8 µM
same,TGI,HS 578T breast,34.1 µM
same,TGI,MDA-MB-435,27.7 µM
same,TGI,SNB-19 CNS,26.9 µM
same,TGI,COLO 205 colon,17.5 µM
same,TGI,OVCAR-5 ovarian,26 µM
same,TGI,SF-295 CNS,23.1 µM
same,TGI,KM12 colon,4.21 µM
same,TGI,NCI-H522 lung,3.06 µM

# — PubChem BioAssay (NCI)
